This is an account of results in US12606554B2, “Compounds and pharmaceutical compositions thereof for the treatment of diseases” (ONCO3R Therapeutics BV, priority 2019, dated 2026).

In one assay the target is T1, SIK2 (Homo sapiens, UniProt Q9H0K1).
T1 construct: purchased ThermoFisher Scientific PV4792
Kind of assay: ADP-Glo kinase assay, SIK2. It is filed as biochemical. To be noted: AMARA peptide 45 μM, 5 μM ATP, 120 min. The text has this:
(§1) The ADP-Glo™ kinase assay is a luminescent technology assay which measures the ADP formed from a kinase reaction. In this specific study, the kinase reactions consisted of the phosphorylation of the AMARA peptide substrate (SignalChem, Cat #A11-58) by SIK1 (Carma Biosciences, Cat #02-131), SIK2 (ThermoFisher Scientific, Cat #PV4792) or SIK3 (SignalChem, Cat #S12-11G-100). In a second step the kinase reactions are terminated and all the remaining ATP is depleted. In a final step the ADP is converted into ATP and this newly synthesized ATP is measured by using a luciferase/luciferin reaction. The generated light is measured using an Envision plate reader, wherein the luminescent signal obtained positively correlates with the kinase activity.
(§2) The test compounds are prepared as a serial dilution of 10 point dose responses with ⅕ dilution steps in 100% DMSO starting from 2 mM highest concentration, diluted 1/20 in water and […] is transferred to the assay plates (PerkinElmer Inc., Cat #6007290).
(§3) 1% DMSO and 10 μM staurosporine final concentrations are used as negative and positive controls.
(§4) 2 μL enzyme-substrate mixture is added to the assay plates.
(§5) The reaction is started by adding 2 μL diluted ATP on the assay plates. Plates are centrifuged for a few seconds at 1000 rpm and gently shaken for 2 min followed by an incubation at RT for 120 min.
(§6) The reactions are stopped and the unconsumed ATP is depleted by adding 5 μL ADP-Glo Reagent (Promega, Cat #V9121B) to the reaction. The plates are centrifuged for a few seconds at 1000 rpm and incubated at RT for […] (ATP depletion).
(§7) The ADP is converted to ATP and luciferase and luciferin is introduced to detect ATP by adding 10 μL Kinase Detection Reagent (Promega, Cat #V913B+V914r) to the reaction. The plates are centrifuged for a few seconds at 1000 rpm and incubated at RT for 30 min (ADP detection).
(§8) Luminescence is measured on an Envision plate reader (PerkinElmer Inc.).
(§9) Raw data are generated following the read-out performed on the TopCount, plotted to generate dose response curves to calculate percentage inhibition (PIN) and average IC50 for each SIK homologue which are reported in the table below.

The next assay concerns the target T2, SIK1 (Homo sapiens, UniProt P57059).
T2 construct: purchased Carna Biosciences 02-131
Kind of assay: ADP-Glo kinase assay, SIK1. To be noted: AMARA peptide 45 μM, 5 μM ATP, 120 min, read-out: SIM1 IC50. It is filed as biochemical.
Excerpt: as §1, §2, §3, §4, §5, §6, §7, §8, §9

The target in the next assay is T3, SIK3 (Homo sapiens, UniProt Q9Y2K2).
T3 construct: purchased SignalChem S12-11G-100
Kind of assay: ADP-Glo kinase assay, SIK3. The conditions noted are these: AMARA peptide 45 μM, 5 μM ATP, 120 min. It is filed as biochemical.
Excerpt: as §1, §2, §3, §4, §5, §6, §7, §8, §9

The conditions of assay [1]: mice; Wein et al. 2016; cited from earlier work.
In assay [2] the test system is LPS-induced TNFα in monocytes. Kind of assay: Monocytes assay: LPS-triggered TNFα (ELISA). It is filed as cell-based. To be noted: Homo sapiens, Monocyte, LPS 200 ng/mL, supernatant after 4 h. As for the experimental part:
SIK inhibition inhibits TNFα and increases IL-10 release in LPS triggered monocyte-derived macrophages (MdM) and dendritic cells (MdDCs) (Clark et al. 2012; Sundberg et al. 2014; Ozanne et al. 2015). This assay evaluates illustrative compounds of the invention for their inhibition of LPS-induced TNFα and LPS triggered IL-10 secretion in monocytes.
PBMCs are isolated from human blood samples (buffycoats). The buffy coat is aseptically transferred into a 50 mL Falcon tube, and diluted ½ in PBS. Falcon tubes are filled with 20 mL Lymphoprep™, on top of which 25 mL of the buffy coat is carefully added, tubes are centrifuged for 35 min at 400 g in temperature controlled centrifuge, without brake, at 25° C. PBMCs are aspirated from the white interface layer between sample and Lymphoprep™. PBMCs are washed five times in PBS. Cells are resuspended in RPMI 1640 complete medium supplemented with 10% FBS, 1% P/S, and cell density is determined using a hematologic analyzer (Sysmex XS-500i).
PBMCs are centrifuged at 300×g for 10 min and resuspended at a density of 1.0*10^7 cells/80 μL Miltenyi buffer (PBS, pH 7.4, 1% FBS, 2 mM EDTA).
Starting from this point of the protocol all steps are performed on ice. 20 μL of CD14+ micro-beads are added per 1.0*10^7 cells, the tube is mixed and incubated for 15 min in the fridge at 4° C. Cell suspension volume is adjusted to total volume of 100 mL using Miltenyi buffer, mixed gently and subsequently centrifuged for 10 min at 300×g. Supernatant is discarded and cell pellet is resuspended in 12 mL of Miltenyi buffer.
Four LS columns are placed in the MACS Separator (magnet) from Miltenyi Biotec, and are prewet by rinsing with 3 mL of MACS buffer per column. Three mL of cell suspension is added onto the column (max 1*10^8 of labelled cells/column), and columns are subsequently washed 3 times with 3 mL of Miltenyi buffer.
The columns are removed from the magnets, and 5 mL of Miltenyi buffer are added to the column to flush out the CD14+ fraction by pushing the plunger into the column. The flushed fractions are collected in a fresh 50 mL Falcon and volume is adjusted to 30 mL using Miltenyi buffer, cells are centrifuged for 10 min at 300×g. The obtained cell pellet is resuspended in 10 mL RPMI w/o FBS, and cell density is determined using a hematologic analyser (Sysmex XS-500i). 100 000 cells are seeded in 80 μL per well of a 96-well plate in RPMI 1640 medium supplemented with 10% FBS, 1% P/S.
A compound dilution plate is made in 100% DMSO by 3-fold dilution of 10 mM stock solution. An intermediate dilution plate (10× final concentration) is made by diluting the compound dilution plate 50-fold in RPMI medium.
10 μL of the 10× final concentration compound is added to the cells and incubated for 1 h at 37° C. before addition of trigger. […]

T1 sequence (Q9H0K1 whole entry): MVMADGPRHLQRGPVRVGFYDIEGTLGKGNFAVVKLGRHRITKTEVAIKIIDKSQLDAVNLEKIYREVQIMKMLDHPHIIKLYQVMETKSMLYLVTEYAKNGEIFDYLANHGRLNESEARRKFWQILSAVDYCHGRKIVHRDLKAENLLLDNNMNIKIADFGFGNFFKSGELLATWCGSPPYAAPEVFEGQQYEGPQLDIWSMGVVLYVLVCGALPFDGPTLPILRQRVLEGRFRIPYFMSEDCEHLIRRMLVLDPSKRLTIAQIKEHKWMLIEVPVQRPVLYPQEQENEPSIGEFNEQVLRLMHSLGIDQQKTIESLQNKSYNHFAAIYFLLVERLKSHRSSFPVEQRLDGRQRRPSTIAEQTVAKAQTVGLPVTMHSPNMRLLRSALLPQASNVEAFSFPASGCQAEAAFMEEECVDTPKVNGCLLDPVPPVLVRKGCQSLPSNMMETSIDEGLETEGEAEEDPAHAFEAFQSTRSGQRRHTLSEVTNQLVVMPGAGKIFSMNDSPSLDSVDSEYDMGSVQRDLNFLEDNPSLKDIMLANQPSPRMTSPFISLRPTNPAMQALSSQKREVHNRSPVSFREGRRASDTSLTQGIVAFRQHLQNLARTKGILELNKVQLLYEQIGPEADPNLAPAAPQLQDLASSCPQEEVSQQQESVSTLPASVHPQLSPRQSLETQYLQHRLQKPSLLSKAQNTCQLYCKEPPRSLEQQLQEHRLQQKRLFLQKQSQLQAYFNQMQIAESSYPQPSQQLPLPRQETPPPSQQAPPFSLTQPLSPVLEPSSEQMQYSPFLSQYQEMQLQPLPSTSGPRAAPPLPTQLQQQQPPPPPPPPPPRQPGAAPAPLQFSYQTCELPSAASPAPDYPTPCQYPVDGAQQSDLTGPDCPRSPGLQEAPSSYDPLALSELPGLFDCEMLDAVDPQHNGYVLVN
T2 sequence (P57059 whole entry): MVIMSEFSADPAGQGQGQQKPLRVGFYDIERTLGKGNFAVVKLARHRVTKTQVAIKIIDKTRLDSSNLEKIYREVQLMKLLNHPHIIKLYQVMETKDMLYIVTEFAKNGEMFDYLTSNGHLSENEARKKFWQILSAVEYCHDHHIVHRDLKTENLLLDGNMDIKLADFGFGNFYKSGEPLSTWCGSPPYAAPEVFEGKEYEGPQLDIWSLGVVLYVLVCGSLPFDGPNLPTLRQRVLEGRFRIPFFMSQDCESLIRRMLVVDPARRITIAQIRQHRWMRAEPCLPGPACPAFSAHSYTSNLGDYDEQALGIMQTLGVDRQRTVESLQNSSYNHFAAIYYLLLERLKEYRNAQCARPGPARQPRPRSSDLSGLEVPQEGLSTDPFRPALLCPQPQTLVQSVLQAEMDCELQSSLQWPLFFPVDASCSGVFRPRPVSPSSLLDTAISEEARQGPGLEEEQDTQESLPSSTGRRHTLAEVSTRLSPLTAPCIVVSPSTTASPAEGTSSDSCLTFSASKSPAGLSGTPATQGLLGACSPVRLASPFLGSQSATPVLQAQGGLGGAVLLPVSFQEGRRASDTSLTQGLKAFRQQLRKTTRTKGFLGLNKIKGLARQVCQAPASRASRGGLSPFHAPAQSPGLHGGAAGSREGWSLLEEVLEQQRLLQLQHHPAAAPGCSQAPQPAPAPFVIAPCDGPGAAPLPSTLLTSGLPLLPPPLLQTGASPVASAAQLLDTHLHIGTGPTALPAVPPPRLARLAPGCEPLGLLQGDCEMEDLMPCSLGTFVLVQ
T3 sequence (Q9Y2K2 whole entry): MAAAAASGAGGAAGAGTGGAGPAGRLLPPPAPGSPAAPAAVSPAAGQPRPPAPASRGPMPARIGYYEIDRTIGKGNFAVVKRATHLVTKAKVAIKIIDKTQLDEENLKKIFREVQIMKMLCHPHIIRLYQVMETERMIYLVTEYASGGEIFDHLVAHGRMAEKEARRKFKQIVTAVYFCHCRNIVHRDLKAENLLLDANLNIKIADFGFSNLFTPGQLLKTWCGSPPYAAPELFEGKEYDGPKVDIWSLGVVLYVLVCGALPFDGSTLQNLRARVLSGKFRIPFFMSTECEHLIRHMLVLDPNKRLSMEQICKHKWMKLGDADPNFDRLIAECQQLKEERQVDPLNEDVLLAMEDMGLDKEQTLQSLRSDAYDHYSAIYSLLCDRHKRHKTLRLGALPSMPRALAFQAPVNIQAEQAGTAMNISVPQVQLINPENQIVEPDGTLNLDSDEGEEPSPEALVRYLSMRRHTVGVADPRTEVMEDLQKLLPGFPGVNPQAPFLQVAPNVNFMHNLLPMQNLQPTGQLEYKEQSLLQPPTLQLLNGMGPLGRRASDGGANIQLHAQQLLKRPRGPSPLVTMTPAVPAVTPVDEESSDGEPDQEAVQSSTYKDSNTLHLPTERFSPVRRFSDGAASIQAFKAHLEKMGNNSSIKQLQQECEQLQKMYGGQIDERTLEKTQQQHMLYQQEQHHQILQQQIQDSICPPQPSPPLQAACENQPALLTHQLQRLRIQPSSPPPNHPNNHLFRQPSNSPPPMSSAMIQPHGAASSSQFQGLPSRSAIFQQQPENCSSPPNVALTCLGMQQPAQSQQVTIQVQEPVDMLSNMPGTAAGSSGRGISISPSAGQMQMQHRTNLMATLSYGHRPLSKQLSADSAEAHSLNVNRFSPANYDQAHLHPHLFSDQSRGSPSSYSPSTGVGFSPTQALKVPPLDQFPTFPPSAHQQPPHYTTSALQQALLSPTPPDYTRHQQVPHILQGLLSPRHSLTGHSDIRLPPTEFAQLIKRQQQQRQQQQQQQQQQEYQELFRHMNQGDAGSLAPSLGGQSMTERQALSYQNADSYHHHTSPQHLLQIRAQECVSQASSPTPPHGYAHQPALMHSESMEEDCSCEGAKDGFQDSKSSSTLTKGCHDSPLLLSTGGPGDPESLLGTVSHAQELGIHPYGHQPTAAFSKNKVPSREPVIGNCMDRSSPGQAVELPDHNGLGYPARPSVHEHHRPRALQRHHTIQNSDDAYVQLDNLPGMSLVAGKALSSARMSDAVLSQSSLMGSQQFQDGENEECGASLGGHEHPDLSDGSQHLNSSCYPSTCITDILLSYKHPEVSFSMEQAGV

Consider `COc1cc(-c2cnn3cc(OCCN4CCOCC4)cnc23)cc2c1C(=O)N(CC(F)(F)F)CC2` [Cpd 4, 8-methoxy-6-[6-(2-morpholinoethoxy)pyrazolo[1,5-a]pyrimidin-3-yl]-2-(2,2,2-trifluoroethyl)-3,4-dihydroisoquinolin-1-one], for which the IC50 against SIK2 was 10 to 100 nM; at SIK1, greater than 500 nM; against SIK3, 10 to 100 nM.

In the case of `COc1ccc(N2C(=O)N(c3c(C)cccc3Cl)Cc3cnc(Nc4ccc(C5CCN(C)CC5)cc4OC)nc32)nc1` [YKL-05-099], the “bone formation and bone mass” value in assay [1] is “increased bone formation and bone mass”.

In assay [2], `COc1cc(-c2cnn3cc(OC(C)(C)CN4CC5(COC5)C4)ccc23)cc(OC(F)F)c1C(=O)N[C@@H]1C[C@@H]1F` [Cpd 6, 2-(difluoromethoxy)-4-[6-[1,1-dimethyl-2-(2-oxa-6-azaspiro[3.3]heptan-6-yl)ethoxy]pyrazolo[1,5-a]pyridin-3-yl]-N-[(2S)-2-fluorocyclopropyl]-6-methoxy-benzamide] had an EC50 of 100 to 1000 nM. The IC50 at SIK2 was 10 to 100 nM; on SIK1, greater than 500 nM; on SIK3, 10 to 100 nM.

`COc1cc(-c2cnc3cc(OCCN4CCOCC4)cnn23)cc2c1C(=O)N(CC(F)(F)F)CC2` [Cpd 5, 8-methoxy-6-[7-(2-morpholinoethoxy)imidazo[1,2-b]pyridazin-3-yl]-2-(2,2,2-trifluoroethyl)-3,4-dihydroisoquinolin-1-one]: the IC50 is 10 to 100 nM on SIK2, greater than 500 nM at SIK1 and 10 to 100 nM at SIK3.

For orientation: IC50 means the concentration that gives 50% inhibition. Broadly, the EC50 is the concentration at which the effect is half-maximal. A high value points to a less potent agent.
